Data published in patent US11274095B2, “Modulators of methyl modifying enzymes, compositions and uses thereof” (Constellation Pharmaceuticals, Inc., priority 2018, dated 2022).
Where two headings read alike, the source gives them in different places.

Assays:
Karpas-422 cell lines = experiment: Karpas-422 viability assay (Cell Titer-Glo, Day 8); assay type: cell-based; conditions: Homo sapiens, KARPAS-422, 192 h, Cell Titer-Glo on Day 8
Method: Karpas-422 cell lines were obtained from DSMZ (Braunschweig, Germany) and were grown in RPMI-1640 media. All media contained 10% fetal bovine serum (FBS) and 1% penicillin/streptomycin (Invitrogen). 20K cells per well were plated onto 96 well compound coated plates. Cells were split and seeded at original plating density (based on the DMSO well counts) every 4 days into plates containing fresh EZH2 inhibitors. Relative cell numbers were assessed by Cell Titer-Glo luminescent cell viability assay (Promega) on Day 8. GraphPad Prism 5 was used for curve fitting and GI50 values were reported.

PRC2 containing wt EZH2 [1] = target: T1, PRC2 containing wt EZH2 (Homo sapiens (Human), UniProt Q15910); experiment: EZH2 biochemical assay (IC50), 3H-SAM incorporation into biotinylated H3 peptide; conditions: 30 pM PRC2 with wt EZH2, 3-5 h pre-incubation
Method: EZH2 biochemical assay (IC50): Compound potencies were assessed through incorporation of ^3H-SAM into a biotinylated H3 peptide. Specifically, 30 pM PRC2 containing wt EZH2 (pentameric complex prepared in-house) was pre-incubated with 450 nM SAM, 450 nM ^3H-SAM, 2 μM H3K27me3 activating peptide (H2N-RKQLATKAAR(Kme3)SAPATGGVKKP-amide) and compounds (as 10 point duplicate dose response titrations in DMSO, final assay 0.8% DMSO (v/v)) for 3-5 h in 50 mM Tris (pH 8.5), 1 mM DTT, 0.07 mM Brij-35, 0.1% BSA, and 0.8% DMSO in a total volume of 12.5 μl. Reaction was initiated with biotinylated H3 substrate peptide (H2N-RKQLATKAAR(Kmel)SAPATGGVKKP-NTPEGBiot) as a 2 μM stock in 12.5 μl of buffer and allowed to react at room temperature for 18-22 h. Quenching was accomplished by addition of 20 μl of STOP solution (50 mM Tris (pH 8.5), 200 mM EDTA, 2 mM SAH). 35 μl of the quenched solution was transferred to streptavidin coated FlashPlates (PerkinElmer), incubated 1-2 h, washed, and read in a TopCount Reader (PerkinElmer). IC50s were calculated in Genedata Screener using non-linear least square four parameter fits, where the four parameters were IC50, Hill slope, pre-transitional baseline (0% INH), and post-transitional baseline (100% INH).

PRC2 containing wt EZH2 [2] = target: T1, PRC2 containing wt EZH2; experiment: EZH2 residence time assay (100-fold dilution of enzyme-inhibitor complex); assay type: biochemical
Method: EZH2 residence time assay: Compound residence times were assessed by monitoring the recovery of enzyme activity following a 100-fold dilution of pre-formed enzyme-inhibitor complex (dilution reaction), and comparing it to the activity of an undiluted control with the same final concentrations of all reagents (control reaction). Enzyme activity was measured by incorporation of ^3H-SAM into a biotinylated H3 peptide. For the dilution reaction, 20 nM PRC2 containing wt EZH2 (pentameric complex prepared in-house) was pre-incubated with 1 μM activating peptide (H2N-RKQLATKAAR(Kme3)SAPATGGVKKP-amide) and compound at 600 times its Ki for 2 h in 40 μL of buffer (50 mM Tris pH 8.5, 4 mM DTT, 1 mM MgCl2, 0.07 mM Brij-35, and 0.1 mg/mL BSA), then diluted 100-fold and the reaction initiated by transferring 1.4 μL to a 138.6 μL volume of buffer containing 1 μM activating peptide, 5.05 μM substrate peptide (H2N-[…]-NTPEGbiot), 1.01 μM SAM, and 1.01 μM ^3H-SAM. […] Reactions were quenched at various time points spanning up to 10 hours, by transferring 8μL aliquots from the reaction vessel to a plate containing 8μL per well of STOP solution (50 mM Tris pH 8.5, 200 mM EDTA, 2 mM SAH). After the last time point, 12 μL of the quenched solutions were transferred to a streptavidin coated FlashPlate (PerkinElmer) containing 40 μL per well of STOP solution, incubated 1-8 h, washed, and read in a TopCount plate reader (PerkinElmer).
A custom script was used to fit control reaction progress data to a straight line and dilution reaction progress data:
[formula] Where y is the product formed, t is the reaction time, vi is the initial velocity, vs is the steady state velocity, and kobs is the rate constant for the transition from the initial velocity phase of the curve to the steady state velocity phase of the curve. In fitting the dilution reaction progress data, vs was constrained to the slope of the line fitted to the control reaction progress data. The fitted value of kobs was then transformed into residence time:
[formula] Where τ is residence time, Ki is the inhibition constant, [EI] is the calculated equilibrium concentration of enzyme-inhibitor complex, [E] is the calculated equilibrium concentration of free enzyme, and [I] is the calculated equilibrium concentration of free inhibitor.

[3] = recovery of enzyme activity after 100-fold dilution, read-out: EZH2 residence time (converted)

T1 sequence (Q15910 whole entry): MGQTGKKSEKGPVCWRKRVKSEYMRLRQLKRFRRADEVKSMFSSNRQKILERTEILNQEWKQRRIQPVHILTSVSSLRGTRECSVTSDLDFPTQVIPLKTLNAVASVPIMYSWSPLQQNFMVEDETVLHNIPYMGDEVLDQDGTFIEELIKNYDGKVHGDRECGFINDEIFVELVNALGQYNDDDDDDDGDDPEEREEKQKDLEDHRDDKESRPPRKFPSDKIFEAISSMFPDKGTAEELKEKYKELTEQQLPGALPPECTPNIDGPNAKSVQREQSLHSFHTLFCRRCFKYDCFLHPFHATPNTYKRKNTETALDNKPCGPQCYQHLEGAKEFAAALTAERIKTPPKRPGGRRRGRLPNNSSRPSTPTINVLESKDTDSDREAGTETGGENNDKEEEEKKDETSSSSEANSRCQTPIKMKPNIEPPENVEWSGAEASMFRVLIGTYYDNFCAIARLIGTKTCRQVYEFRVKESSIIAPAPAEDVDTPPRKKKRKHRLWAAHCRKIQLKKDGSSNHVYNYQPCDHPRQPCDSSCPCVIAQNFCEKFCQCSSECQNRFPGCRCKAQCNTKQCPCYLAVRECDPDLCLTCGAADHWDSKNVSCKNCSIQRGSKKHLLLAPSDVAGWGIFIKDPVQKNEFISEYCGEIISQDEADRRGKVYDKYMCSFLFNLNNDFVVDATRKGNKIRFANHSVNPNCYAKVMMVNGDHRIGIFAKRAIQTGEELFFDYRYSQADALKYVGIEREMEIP
T1 sequence (O75530 whole entry partner): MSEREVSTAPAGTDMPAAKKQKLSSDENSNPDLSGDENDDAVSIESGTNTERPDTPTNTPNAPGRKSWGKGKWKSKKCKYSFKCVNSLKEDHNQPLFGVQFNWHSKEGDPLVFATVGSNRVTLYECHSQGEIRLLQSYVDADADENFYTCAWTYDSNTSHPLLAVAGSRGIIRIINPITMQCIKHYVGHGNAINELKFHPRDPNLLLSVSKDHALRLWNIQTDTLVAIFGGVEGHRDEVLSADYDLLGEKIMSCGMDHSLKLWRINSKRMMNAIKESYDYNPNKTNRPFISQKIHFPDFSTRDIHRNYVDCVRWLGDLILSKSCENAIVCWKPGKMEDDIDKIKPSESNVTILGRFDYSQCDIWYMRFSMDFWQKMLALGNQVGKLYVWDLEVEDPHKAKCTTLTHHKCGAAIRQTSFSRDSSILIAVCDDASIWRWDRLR
T1 sequence (Q15022 whole entry partner): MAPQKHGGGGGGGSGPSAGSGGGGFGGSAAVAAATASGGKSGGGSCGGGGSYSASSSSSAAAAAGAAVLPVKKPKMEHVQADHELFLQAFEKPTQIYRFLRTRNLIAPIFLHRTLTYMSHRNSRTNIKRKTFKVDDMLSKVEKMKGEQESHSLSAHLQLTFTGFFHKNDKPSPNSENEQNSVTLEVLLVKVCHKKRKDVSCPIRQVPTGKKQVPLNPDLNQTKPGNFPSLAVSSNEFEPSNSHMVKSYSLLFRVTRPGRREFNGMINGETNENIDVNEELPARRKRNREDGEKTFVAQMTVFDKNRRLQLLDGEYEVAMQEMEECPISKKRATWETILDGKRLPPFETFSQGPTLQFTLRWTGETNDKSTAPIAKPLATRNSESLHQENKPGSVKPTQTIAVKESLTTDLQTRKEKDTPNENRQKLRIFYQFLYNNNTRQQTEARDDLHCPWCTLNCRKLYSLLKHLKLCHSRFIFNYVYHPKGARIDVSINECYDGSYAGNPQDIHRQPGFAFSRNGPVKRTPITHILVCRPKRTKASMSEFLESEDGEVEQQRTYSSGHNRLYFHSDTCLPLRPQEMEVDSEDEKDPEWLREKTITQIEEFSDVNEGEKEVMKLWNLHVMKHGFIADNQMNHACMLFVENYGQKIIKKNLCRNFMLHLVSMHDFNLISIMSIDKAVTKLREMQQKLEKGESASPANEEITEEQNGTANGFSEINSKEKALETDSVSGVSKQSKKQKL
T1 sequence (Q09028 whole entry partner): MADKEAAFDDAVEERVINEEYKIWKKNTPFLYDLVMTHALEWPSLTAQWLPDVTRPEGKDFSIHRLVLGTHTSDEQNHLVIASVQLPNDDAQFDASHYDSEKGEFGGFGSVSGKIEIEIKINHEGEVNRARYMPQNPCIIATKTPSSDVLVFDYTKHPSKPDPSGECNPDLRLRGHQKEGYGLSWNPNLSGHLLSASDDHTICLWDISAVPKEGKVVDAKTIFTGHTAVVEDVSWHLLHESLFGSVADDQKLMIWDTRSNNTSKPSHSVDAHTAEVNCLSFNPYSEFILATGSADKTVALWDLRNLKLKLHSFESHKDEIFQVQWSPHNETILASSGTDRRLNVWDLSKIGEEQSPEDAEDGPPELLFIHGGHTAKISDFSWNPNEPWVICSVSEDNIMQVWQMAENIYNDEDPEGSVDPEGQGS
T1 sequence (Q6ZN18 whole entry partner): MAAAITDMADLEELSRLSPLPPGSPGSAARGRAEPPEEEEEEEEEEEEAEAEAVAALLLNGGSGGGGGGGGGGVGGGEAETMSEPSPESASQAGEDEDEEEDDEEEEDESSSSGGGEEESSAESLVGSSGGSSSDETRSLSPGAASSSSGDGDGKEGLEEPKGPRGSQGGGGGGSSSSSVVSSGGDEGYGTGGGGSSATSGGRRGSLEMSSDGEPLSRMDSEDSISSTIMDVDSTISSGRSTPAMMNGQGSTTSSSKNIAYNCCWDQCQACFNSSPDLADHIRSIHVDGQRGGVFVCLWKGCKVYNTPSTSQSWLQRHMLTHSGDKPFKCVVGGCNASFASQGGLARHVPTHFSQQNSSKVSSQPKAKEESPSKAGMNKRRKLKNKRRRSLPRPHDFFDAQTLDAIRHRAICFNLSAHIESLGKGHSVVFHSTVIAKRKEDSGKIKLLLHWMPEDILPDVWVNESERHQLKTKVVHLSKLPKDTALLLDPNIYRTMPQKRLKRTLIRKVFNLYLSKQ

Row | GI50 (Karpas-422 cell lines) [nM] | IC50 (PRC2 containing wt EZH2 [1]) [nM] | residence time (PRC2 containing wt EZH2 [2]; [3]) [min] | Compound | residence time (PRC2 containing wt EZH2 [2]; read-out: EZH2 residence time) [min]
1 | 9.7 | 0.084 | 2880 | Cc1cc(Cl)c(CNC(=O)c2cc(Cl)c3c(c2C)OC(C)(C2CCC(N4CC(OC(F)F)C4)CC2)O3)c(=O)[nH]1 (single isomer, unassigned) [Example 13] | 
2 | 20 | 0.202 | 2220 | CSc1nc(C)[nH]c(=O)c1CNC(=O)c1cc(Cl)c2c(c1C)OC(C)(C1CCC(N3CC(OC(F)F)C3)CC1)O2 (single isomer, unassigned) [Example 10] | 
3 | 3.7 | 0.054 | > 6000 | CSc1cc(C)[nH]c(=O)c1CNC(=O)c1cc(Cl)c2c(c1C)OC(C)(C1CCC(N3CC(OC4CC4)C3)CC1)O2 (single isomer, unassigned) [Example 9] | 
4 | 3.5 | 0.043 | > 6000 | COC1CN(C2CCC(C3(C)Oc4c(Cl)cc(C(=O)NCc5c(SC)cc(C)[nH]c5=O)c(C)c4O3)CC2)C1 (single isomer, unassigned) [Example 17, 7-chloro-2-(4-(3-methoxyazetidin-1-yl)cyclohexyl)-2,4-dimethyl-N-((6-methyl-4-(methylthio)-2-oxo-1,2-dihydropyridin-3-yl)methyl)benzo[d][1,3]dioxole-5-carboxamide] | 

The next lines start with the compound.

Row | Compound | GI50 (Karpas-422 cell lines) [nM] | IC50 (PRC2 containing wt EZH2 [1]) [nM] | residence time (PRC2 containing wt EZH2 [2]; [3]) [min] | residence time (PRC2 containing wt EZH2 [2]; read-out: EZH2 residence time) [min]
5 | Cc1cc(Cl)c(CNC(=O)c2cc(Cl)c3c(c2C)OC(C)(C2CCC(N4CC(OC5CC5)C4)CC2)O3)c(=O)[nH]1 (single isomer, unassigned) [Example 8, 7-chloro-N-((4-chloro-6-methyl-2-oxo-1,2-dihydropyridin-3-yl)methyl)-2-(4-(3-cyclopropoxyazetidin-1-yl)cyclohexyl)-2,4-dimethylbenzo[d][1,3]dioxole-5-carboxamide] | 5 | 0.039 | > 6000 | 
6 | CSc1cc(C)[nH]c(=O)c1CNC(=O)c1cc(Cl)c2c(c1C)OC(C)(C1CCC(N3CC(F)C3)CC1)O2 (single isomer, unassigned) [Example 12] | 4.4 | 0.092 | > 6000 | 
7 | CSc1cc(C)[nH]c(=O)c1CNC(=O)c1cc(Cl)c2c(c1C)OC(C)(C1CCC(N3CC(OC(F)F)C3)CC1)O2 (single isomer, unassigned) [Example 1, 7-chloro-2-(4-(3-(difluoromethoxy)azetidin-1-yl)cyclohexyl)-2,4-dimethyl-N-((6-methyl-4-(methylthio)-2-oxo-1,2-dihydropyridin-3-yl)methyl)benzo[d][1,3]dioxole-5-carboxamide] | 3.9 | 0.091 |  | > 6000
